According to patent publication US11820787B2, “Benfotiamine derivatives in the treatment of alzheimer's disease” (SHANGHAI RAISING PHARMACEUTICAL CO., LTD., priority 2019, dated 2023):

Assays:
Aβ40 = Aβ40 content in culture supernatant of HEK293APP/sw overexpression cells (ELISA, adjusted to total protein); format: cell-based; settings: for Aβ40 content: secreted by APP/293 (HEK293APP/sw) cells, 400 μM, treated for 24 h, blank control 127.81
Method: (§1) (1) BCA protein concentration assay kit is purchased from Beyotime, Aβ40 and AB42 test kits are purchased from Wako Company. Except the fetal bovine serum (FBS) is purchased from Shanghai Pulong Biotechnology Research and Development Co. Ltd., the other related reagents are purchased from Gibico Company.
(§2) (2) HEK293APP/sw overexpression cell culture: cells are cultured in 48 microwell plate with DMEM culture solution (including 10% FBS, 100 μg/mL G418 (Geneticin) and penicillin and streptomycin), and a 4 mM stock in DMEM is diluted with DMEM to 400 μM and added to cell culture medium by 500 μL/well at 70% cell density and treated for 24 h.
(§3) (3) After the supernatant of culture solution is added to the BCA reagent at room temperature for 30 minutes, the absorption value of each well is measured at the OD 570 nm by the microplate reader and the total protein concentration is calculated according to the protein standard curve. Meanwhile, the concentration of Aβ40 and Aβ42 in the supernatant of culture solution is measured. Briefly, the supernatant is added to the 96 microwell plate coated by primary antibodies and incubated at 4° C. for overnight. Then the solution in the 96 microwell plate is removed and washed, and HRP (horseradish oxide enzyme) marked antibody is added to the solution and incubated at 4° C. for 2 hours. The antibody is removed and the plate is washed. After TMB substrate is added to each well at room temperature for 30 minutes, and the stop buffer is added to each well. The absorption value of each well is measured at the OD 450 nm by the microplate reader and the concentrations of Aβ40 and Aβ42 are calculated according to the standard curves of Aβ40 and Aβ42 respectively, and the final concentration is obtained by adjusting the concentrations of Aβ40 and Aβ42 according to the total protein concentration.

Aβ42 = Aβ42 content in culture supernatant of HEK293APP/sw overexpression cells (ELISA, adjusted to total protein); format: cell-based; settings: for Aβ42 content: secreted by APP/293 (HEK293APP/sw) cells, 400 μM, treated for 24 h, blank control 11.08
Method: as §1, §2, §3

Row | Compound | Aβ40 content (Aβ40) [pmol/L] | Aβ42 content (Aβ42) [pmol/L] | effect on the generation of Aβ40 peptides compared with blank control (Aβ40; APP/293 cells, in words) | effect on the generation of Aβ42 peptides compared with blank control (Aβ42; APP/293 cells, in words)
1 | C/C(=C(\CCOP(=O)(O)O)SC(=O)c1ccccc1[N+](=O)[O-])N(C=O)Cc1cnc(C)nc1N [Example 22, (Z)-S-(2-(N-((4-amino-2-methylpyrimidin-5-yl)methyl)formamido)-5-(phosphonooxy)pent-2-en-3-yl)2-nitrobenzothioate] | 127.81 | 11.31 |  | 
2 | C/C(=C(\CCOP(=O)(O)O)SC(=O)c1ccc(F)cc1)N(C=O)Cc1cnc(C)nc1N [Example 7, (Z)-S-(2-(N-((4-amino-2-methylpyrimidin-5-yl)methyl)formamido)-5-(phosphonooxy)pent-2-en-3-yl)4-fluorobenzothioate] | 152.06 | 13.08 |  | 
3 | CCOc1ccccc1C(=O)S/C(CCOP(=O)(O)O)=C(/C)N(C=O)Cc1cnc(C)nc1N [Example 16] | 42.76 | 5.93 |  | 
4 | CCOc1ccc(C(=O)S/C(CCOP(=O)(O)O)=C(/C)N(C=O)Cc2cnc(C)nc2N)cc1 [Example 2, (Z)-S-(2-(N-((4-amino-2-methylpyrimidin-5-yl)methyl)formamido)-5-(phosphonooxy)pent-2-en-3-yl)4-ethoxybenzothioate] | 93.07 | 7.19 |  | 
5 | C/C(=C(\CCOP(=O)(O)O)SC(=O)c1c(F)cccc1F)N(C=O)Cc1cnc(C)nc1N [Example 4, (Z)-S-(2-(N-((4-amino-2-methylpyrimidin-5-yl)methyl)formamido)-5-(phosphonooxy)pent-2-en-3-yl)2,6-difluorobenzothioate] | 133.25 | 8.86 |  | 
6 | C/C(=C(\CCOP(=O)(O)O)SC(=O)c1ccc([N+](=O)[O-])cc1)N(C=O)Cc1cnc(C)nc1N [Example 11, (Z)-S-(2-(N-((4-amino-2-methylpyrimidin-5-yl)methyl)formamido)-5-(phosphonooxy)pent-2-en-3-yl)4-nitrobenzothioate] | 60.98 | 5.21 |  | 
7 | (Z)-S-(2-(N-((4-amino-2-methylpyrimidin-5-yl)methyl)formamido)-5-(phosphonooxy)pent-2-en-3-yl)2-iodobenzothioate [Example 19] | 62.74 | 5.50 |  | 
8 | C/C(=C(\CCOP(=O)(O)O)SC(=O)c1ccc(Br)cc1)N(C=O)Cc1cnc(C)nc1N [Example 17, (Z)-S-(2-(N-((4-amino-2-methylpyrimidin-5-yl)methyl)formamido)-5-(phosphonooxy)pent-2-en-3-yl)4-bromobenzothioate] | 112.53 | 8.89 |  | 
9 | COc1ccc(C(=O)S/C(CCOP(=O)(O)O)=C(/C)N(C=O)Cc2cnc(C)nc2N)cc1 [Example 12, (Z)-S-(2-(N-((4-amino-2-methylpyrimidin-5-yl)methyl)formamido)-5-(phosphonooxy)pent-2-en-3-yl)4-methoxybenzothioate] | 41.60 | 3.92 |  | 
10 | C/C(=C(\CCOP(=O)(O)O)SC(=O)c1cccc(F)c1)N(C=O)Cc1cnc(C)nc1N [Example 8, (Z)-S-(2-(N-((4-amino-2-methylpyrimidin-5-yl)methyl)formamido)-5-(phosphonooxy)pent-2-en-3-yl)3-fluorobenzothioate] | 87.33 | 8.35 |  | 
11 | C/C(=C(\CCOP(=O)(O)O)SC(=O)c1cccc(Br)c1)N(C=O)Cc1cnc(C)nc1N [Example 5, (Z)-S-(2-(N-((4-amino-2-methylpyrimidin-5-yl)methyl)formamido)-5-(phosphonooxy)pent-2-en-3-yl)3-bromobenzothioate] | 25.65 | 6.77 |  | 
12 | C/C(=C(\CCOP(=O)(O)O)SC(=O)c1c(C)cccc1C)N(C=O)Cc1cnc(C)nc1N [Example 23, (Z)-S-(2-(N-((4-amino-2-methylpyrimidin-5-yl)methyl)formamido)-5-(phosphonooxy)pent-2-en-3-yl)2,6-dimethylbenzothioate] | 143.18 | 12.64 |  | 
13 | COc1cccc(C(=O)S/C(CCOP(=O)(O)O)=C(/C)N(C=O)Cc2cnc(C)nc2N)c1 [Example 1, (Z)-S-(2-(N-((4-amino-2-methylpyrimidin-5-yl)methyl)formamido)-5-(phosphonooxy)pent-2-en-3-yl)3-methoxybenzothioate] | 135.09 | 12.14 |  | 
14 | C/C(=C(\CCOP(=O)(O)O)SC(=O)c1cccc([N+](=O)[O-])c1)N(C=O)Cc1cnc(C)nc1N [Example 6, (Z)-S-(2-(N-((4-amino-2-methylpyrimidin-5-yl)methyl)formamido)-5-(phosphonooxy)pent-2-en-3-yl)3-nitrobenzothioate] | 81.05 | 3.31 |  | 
15 | C/C(=C(\CCOP(=O)(O)O)SC(=O)c1ccc(O)cc1)N(C=O)Cc1cnc(C)nc1N [Example 3, (Z)-S-(2-(N-((4-amino-2-methylpyrimidin-5-yl)methyl)formamido)-5-(phosphonooxy)pent-2-en-3-yl)4-hydroxybenzothioate] | 121.48 | 10.79 |  | 
16 | C=Cc1cccc(C(=O)S/C(CCOP(=O)(O)O)=C(/C)N(C=O)Cc2cnc(C)nc2N)c1 [Example 20, (Z)-S-(2-(N-((4-amino-2-methylpyrimidin-5-yl)methyl)formamido)-5-(phosphonooxy)pent-2-en-3-yl)3-vinylbenzothioate] | 117.16 | 10.33 |  | 
17 | C=Cc1ccc(C(=O)S/C(CCOP(=O)(O)O)=C(/C)N(C=O)Cc2cnc(C)nc2N)cc1 [Example 21, (Z)-S-(2-(N-((4-amino-2-methylpyrimidin-5-yl)methyl)formamido)-5-(phosphonooxy)pent-2-en-3-yl)4-vinylbenzothioate] | 127.41 | 11.24 |  | 
18 | C/C(=C(\CCOP(=O)(O)O)SC(=O)c1ccccc1F)N(C=O)Cc1cnc(C)nc1N [Example 9, (Z)-S-(2-(N-((4-amino-2-methylpyrimidin-5-yl)methyl)formamido)-5-(phosphonooxy)pent-2-en-3-yl)2-fluorobenzothioate] | 15.00 |  |  | 
19 | C/C(=C(\CCOP(=O)(O)O)SC(=O)c1cccc(C)c1)N(C=O)Cc1cnc(C)nc1N [Example 14, (Z)-S-(2-(N-((4-amino-2-methylpyrimidin-5-yl)methyl)formamido)-5-(phosphonooxy)pent-2-en-3-yl)3-methylbenzothioate] | 97.97 | 6.41 |  | 
20 | C/C(=C(\CCOP(=O)(O)O)SC(=O)c1ccccc1)N(C=O)Cc1cnc(C)nc1N [Comparative Example 2, S-[2-[[(4-amino-2-methyl-5-pyrimidinyl)methyl]formylamino]-1-[2-(phosphonooxy)ethyl]-1-propenyl]ester, reference compound] | 53.77 | 5.04 | good effect on reducing the generation | good effect on reducing the generation
21 | C/C(=C(\CCOP(=O)(O)O)SC(=O)c1ccccc1C)N(C=O)Cc1cnc(C)nc1N [Example 10, (Z)-S-(2-(N-((4-amino-2-methylpyrimidin-5-yl)methyl)formamido)-5-(phosphonooxy)pent-2-en-3-yl)2-methylbenzothioate] | 112.32 | 9.78 |  | 
22 | C/C(=C(\CCOP(=O)(O)O)SC(=O)c1cccc(Cl)c1)N(C=O)Cc1cnc(C)nc1N [Example 13, (Z)-S-(2-(N-((4-amino-2-methylpyrimidin-5-yl)methyl)formamido)-5-(phosphonooxy)pent-2-en-3-yl)3-chlorobenzothioate] | 69.35 | 6.37 |  | 
23 | C/C(=C(\CCOP(=O)(O)O)SC(=O)c1ccc(Cl)cc1)N(C=O)Cc1cnc(C)nc1N [Example 15, (Z)-S-(2-(N-((4-amino-2-methylpyrimidin-5-yl)methyl)formamido)-5-(phosphonooxy)pent-2-en-3-yl)4-chlorobenzothioate] | 60.27 | 7.16 |  | 
24 | (Z)-S-(2-(N-((4-amino-2-methylpyrimidin-5-yl)methyl)formamido)-5-(phosphonooxy)pent-2-en-3-yl)2-bromobenzothioate [Example 18] | 21.19 | 2.60 |  | 
